Experimental data reported in PMC9964602, “Myxinidin-Derived Peptide against Biofilms Caused by Cystic Fibrosis Emerging Pathogens” (International Journal of Molecular Sciences, 2023).
Where two headings read alike, the source gives them in different places. Where a SMILES comes first, the peptide text is derived from it. [ ]: non-standard residue; d: D form. Dap = NC[C@H](N)C(=O)O; Aib = CC(C)(N)C(=O)O

Legend:
A. xylosoxidans DSM 2402 = test: microbe, parasite or virus in culture; type: cell-based, Achromobacter xylosoxidans
Method: (§1) Candida albicans ATCC 90028, Achromobacter xylosoxidans DSM 2402, and Stenotrophomonas maltophilia DSM 50170 were used in this study. Microbial strains were grown in Tryptone Soya Broth (TSB, VWR chemicals, Leuven, Belgium), supplemented with 0.1% glucose only for C. albicans at 37 °C overnight. Then, cells were harvested by centrifugation at 5000 rpm, 4 °C for 10 min, followed by washing in Phosphate Buffered Saline (PBS, Oxoid Ltd., Basingstoke, UK) three times. Standardized 1 × 10^6 CFU mL^-^1 inoculum was used in the next experiments. The minimum inhibitory concentrations (MIC) of WMR-4 against C. albicans, A. xylosoxidans, and S. maltophilia were determined using a broth microdilution method accord-ing to CLSI M27-A3 and […]-A9 guidelines. Concentrations of WMR-4 from 0.5 to 50 μM were added to wells of a 96-well microplate containing 1 × 10^6 CFU mL^-1 cells. Fluconazole at a concentration range from 1 to 50 μM and meropenem at a concentration range from 10 to 200 μM were used as control. The plate was incubated at 37 °C for 24/48 h due to poor growth after 24 h for the two bacterial species. Next, the absorbance at 590 nm was read using a microplate reader (Synergy H4; BioTek Instruments, Agilent Technologies, Winooski, VT, USA). MIC value was defined as a lowest concentration of WMR and analogues able to inhibit total microbial growth.

S. maltophilia DSM 50170 = test: microbe, parasite or virus in culture; type: cell-based, Stenotrophomonas maltophilia
Method: as §1

C. albicans ATCC 90028 = type: cell-based, Candida albicans; details: ATCC 90028, 48 h
Method: as §1

in vitro = in vitro ADME, bovine; details: serum
Method: The proteolytic stability of WMR and WMR-4 were determined in bovine serum acquired from ThermoFisher Scientific (Milan, Italy). Peptides were dissolved in sterile water to prepare stock solutions, then incubated with 50% of bovine serum to obtain a final concentration of 200 μM [69]. The mixture peptide/serum was incubated at 37 ± 1 °C for different times (0.25, 0.50, 1, 2, 3, 4, 5, and 16 h). At each pre-established time, an aliquot of reaction was taken, and acetonitrile was added to favor the precipitation of serum proteins. Then, the solution was cooled at 4 °C and centrifuged for 15 min at 13,000× g rpm. The supernatant was analyzed by HPLC in a Phenomenex Jupiter 4 μm Proteo 90 Å 250 × 21.20 mm column with a linear gradient of solvent B (0.1% TFA in acetonitrile) in solvent A (0.1% TFA in water) from 5 to 70% in 20 min with UV detection at 210 nm and a flow rate of 1 mL/min.

MIC (A. xylosoxidans DSM 2402; DSM 2402, 48 h)	MIC (S. maltophilia DSM 50170; DSM 50170, 48 h)	SMILES	further results
–	–	C[C@@H](O)[C@H]1C(=O)N2C(C(=O)O)=C(S[C@@H]3CN[C@H](C(=O)N(C)C)C3)[C@H](C)[C@H]12 [MEM, meropenem, reference compound]	MIC (A. xylosoxidans DSM 2402; Achromobacter xylosoxidans, DSM2402, A. xylosoxidans DSM 2402, control drug, value outside parentheses, read-out: MIC): 65 µg/mL; MIC (S. maltophilia DSM 50170; Stenotrophomonas maltophilia, DSM50170, S. maltophilia DSM 50170, control drug, value outside parentheses, read-out: MIC): 130 µg/mL
> 50 µM	> 50 µM	CC[C@H](C)[C@H](NC(=O)CNC(=O)[C@@H](N)Cc1c[nH]c2ccccc12)C(=O)N[C@@H](CCCNC(=N)N)C(=O)N[C@@H](CCCNC(=N)N)C(=O)N[C@H](C(=O)N[C@@H](CC(C)C)C(=O)N[C@@H](CCCCN)C(=O)N[C@@H](Cc1ccc(O)cc1)C(=O)NCC(=O)N[C@@H](CCCCN)C(=O)N[C@@H](CCCNC(=N)N)C(=O)N[C@@H](CO)C(=O)N[C@H](CCCCN)C(N)=O)[C@@H](C)CC [WMR-1] (H-WGIRRILKYGKRS[dK]-NH2)	–
25 µM	25 µM	CC[C@H](C)[C@H](NC(=O)[C@H](CCCNC(=N)N)NC(=O)[C@H](CCCNC(=N)N)NC(=O)[C@@H](NC(=O)C(C)(C)NC(=O)[C@@H](N)Cc1c[nH]c2ccccc12)[C@@H](C)CC)C(=O)N[C@@H](CC(C)C)C(=O)N[C@@H](CCCCN)C(=O)N[C@@H](Cc1ccc(O)cc1)C(=O)NCC(=O)N[C@@H](CCCCN)C(=O)N[C@@H](CCCNC(=N)N)C(=O)N[C@H](CO)C(=O)N[C@H](CCCCN)C(N)=O [WMR-4] (H-W[Aib]IRRILKYGKR[dS][dK]-NH2)	MIC (C. albicans ATCC 90028): 50 µM; remaining at 5 h, 200 μM (in vitro): 70%; remaining at 16 h, 200 μM (in vitro): ~30%
> 50 µM	> 50 µM	CC[C@H](C)[C@H](NC(=O)CNC(=O)[C@@H](N)Cc1c[nH]c2ccccc12)C(=O)N[C@@H](CCCNC(=N)N)C(=O)N[C@@H](CCCNC(=N)N)C(=O)N[C@H](C(=O)N[C@@H](CC(C)C)C(=O)N[C@@H](CCCCN)C(=O)N[C@@H](Cc1ccc(O)cc1)C(=O)NCC(=O)N[C@@H](CCCCN)C(=O)N[C@@H](CCCNC(=N)N)C(=O)N[C@H](CO)C(=O)N[C@@H](CCCCN)C(N)=O)[C@@H](C)CC [WMR-2] (H-WGIRRILKYGKR[dS]K-NH2)	–
> 50 µM	> 50 µM	CC[C@H](C)[C@H](NC(=O)[C@H](CCCNC(=N)N)NC(=O)[C@H](CCCNC(=N)N)NC(=O)[C@@H](NC(=O)C(C)(C)NC(=O)[C@@H](N)Cc1c[nH]c2ccccc12)[C@@H](C)CC)C(=O)N[C@@H](CC(C)C)C(=O)N[C@@H](CCCCN)C(=O)N[C@@H](Cc1ccc(O)cc1)C(=O)NCC(=O)N[C@@H](CCCCN)C(=O)N[C@@H](CCCNC(=N)N)C(=O)N[C@@H](CO)C(=O)N[C@@H](CCCCN)C(N)=O [WMR-3] (H-W[Aib]IRRILKYGKRSK-NH2)	–
25 µM	25 µM	CC[C@H](C)[C@H](NC(=O)CNC(=O)[C@@H](N)Cc1c[nH]c2ccccc12)C(=O)N[C@@H](CCCNC(=N)N)C(=O)N[C@@H](CCCNC(=N)N)C(=O)N[C@H](C(=O)N[C@@H](CC(C)C)C(=O)N[C@@H](CCCCN)C(=O)N[C@@H](Cc1ccc(O)cc1)C(=O)NCC(=O)N[C@@H](CCCCN)C(=O)N[C@@H](CCCNC(=N)N)C(=O)N[C@@H](CO)C(=O)N[C@@H](CN)C(N)=O)[C@@H](C)CC [WMR-5] (H-WGIRRILKYGKRS[Dap]-NH2)	–
50 µM	50 µM	CC[C@H](C)[C@H](NC(=O)CNC(=O)[C@@H](N)Cc1c[nH]c2ccccc12)C(=O)N[C@@H](CCCNC(=N)N)C(=O)N[C@@H](CCCNC(=N)N)C(=O)N[C@H](C(=O)N[C@@H](CC(C)C)C(=O)N[C@@H](CCCCN)C(=O)N[C@@H](Cc1ccc(O)cc1)C(=O)NCC(=O)N[C@@H](CCCCN)C(=O)N[C@@H](CCCNC(=N)N)C(=O)N[C@@H](CO)C(=O)N[C@@H](CCCCN)C(N)=O)[C@@H](C)CC [WMR] (H-WGIRRILKYGKRSK-NH2)	remaining at 0.25 h, 200 μM (in vitro): 75%; remaining at 0.5 h, 200 μM (in vitro): 75%; remaining at 1 h, 200 μM (in vitro): 68%; remaining at 2 h, 200 μM (in vitro): 53%; remaining at 3 h, 200 μM (in vitro): 36%; remaining at 5 h, 200 μM (in vitro): 20%
